Test results as given in ChEMBL document CHEMBL1147661, “The first potent inhibitor of mammalian group X secreted phospholipase A2: elucidation of sites for enhanced binding” (J Med Chem, 2006).

How the values were obtained:
[1] = target: T1, Group 10 secretory phospholipase A2 (Mus musculus, UniProt Q9QXX3); assay: Inhibition of mouse recombinant sPLA2 G10
T1 sequence (Q9QXX3 whole entry): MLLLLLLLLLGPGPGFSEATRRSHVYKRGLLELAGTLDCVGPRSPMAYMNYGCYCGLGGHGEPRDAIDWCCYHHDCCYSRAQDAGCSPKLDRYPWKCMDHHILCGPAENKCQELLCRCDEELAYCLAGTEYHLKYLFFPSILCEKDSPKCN

[2] = target: T2, Phospholipase A2, membrane associated (Homo sapiens, UniProt P14555); assay: Inhibition of human recombinant sPLA2 G2A
T2 sequence (P14555 whole entry): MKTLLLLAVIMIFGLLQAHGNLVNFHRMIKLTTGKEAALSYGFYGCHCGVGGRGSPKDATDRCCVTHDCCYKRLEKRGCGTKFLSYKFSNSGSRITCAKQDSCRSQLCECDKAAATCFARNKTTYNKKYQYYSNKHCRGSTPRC

[3] = target: T3, Phospholipase A2 group V (Homo sapiens, UniProt P39877); assay: Inhibition of human recombinant sPLA2 G5
T3 sequence (P39877 whole entry): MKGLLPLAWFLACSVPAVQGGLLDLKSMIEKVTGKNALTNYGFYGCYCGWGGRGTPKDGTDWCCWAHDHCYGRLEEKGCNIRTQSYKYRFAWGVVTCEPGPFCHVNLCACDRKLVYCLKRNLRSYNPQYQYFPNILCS

[4] = target: Phospholipase A2 (Mus musculus, UniProt Q9Z0Y2); assay: Inhibition of mouse recombinant sPLA2 G1B
Chain of Phospholipase A2 (Mus musculus, UniProt Q9Z0Y2) (Q9Z0Y2 whole entry): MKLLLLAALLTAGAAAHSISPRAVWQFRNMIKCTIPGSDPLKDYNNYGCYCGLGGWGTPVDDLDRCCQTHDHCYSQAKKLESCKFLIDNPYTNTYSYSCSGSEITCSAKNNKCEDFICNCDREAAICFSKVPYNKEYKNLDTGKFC

[5] = target: Phospholipase A2 (Homo sapiens, UniProt P04054); assay: Inhibition of human recombinant sPLA2 G1B
Chain of Phospholipase A2 (Homo sapiens, UniProt P04054) (P04054 whole entry): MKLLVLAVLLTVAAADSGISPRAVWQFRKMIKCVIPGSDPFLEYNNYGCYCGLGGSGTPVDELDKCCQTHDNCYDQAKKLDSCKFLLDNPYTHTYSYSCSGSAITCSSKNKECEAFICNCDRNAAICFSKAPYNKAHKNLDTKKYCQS

[6] = target: T4, Group IIE secretory phospholipase A2 (Mus musculus, UniProt Q9QUL3); assay: Inhibition of mouse recombinant sPLA2 G2E
T4 sequence (Q9QUL3 whole entry): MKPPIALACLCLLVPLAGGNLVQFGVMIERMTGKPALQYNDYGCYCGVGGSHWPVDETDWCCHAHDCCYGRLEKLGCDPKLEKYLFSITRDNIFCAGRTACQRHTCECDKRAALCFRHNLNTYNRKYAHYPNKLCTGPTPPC

[7] = target: T5, Phospholipase A2, membrane associated (Mus musculus, UniProt P31482); assay: Inhibition of mouse recombinant sPLA2 G2A
T5 sequence (P31482 whole entry): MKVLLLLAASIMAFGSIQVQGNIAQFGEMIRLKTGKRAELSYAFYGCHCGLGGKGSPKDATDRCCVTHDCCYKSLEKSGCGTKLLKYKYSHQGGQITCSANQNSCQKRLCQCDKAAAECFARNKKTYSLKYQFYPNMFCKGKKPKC

[8] = target: T6, Phospholipase A2 group V (Mus musculus, UniProt P97391); assay: Inhibition of mouse recombinant sPLA2 G5
T6 sequence (P97391 whole entry): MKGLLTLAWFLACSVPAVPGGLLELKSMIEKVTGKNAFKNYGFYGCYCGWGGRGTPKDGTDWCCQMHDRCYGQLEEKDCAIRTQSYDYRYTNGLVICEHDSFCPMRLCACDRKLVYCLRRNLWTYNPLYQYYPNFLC

[9] = target: T7, Group 10 secretory phospholipase A2 (Homo sapiens, UniProt O15496); assay: Inhibition of human recombinant sPLA2 G10
T7 sequence (O15496 whole entry): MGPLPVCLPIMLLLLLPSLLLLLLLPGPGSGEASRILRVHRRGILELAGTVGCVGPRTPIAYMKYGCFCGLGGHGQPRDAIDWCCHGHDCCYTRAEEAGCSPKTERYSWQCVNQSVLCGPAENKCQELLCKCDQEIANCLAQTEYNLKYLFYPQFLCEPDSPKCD

[10] = target: T8, Group IIE secretory phospholipase A2 (Homo sapiens, UniProt Q9NZK7); assay: Inhibition of human recombinant sPLA2 G2E
T8 sequence (Q9NZK7 whole entry): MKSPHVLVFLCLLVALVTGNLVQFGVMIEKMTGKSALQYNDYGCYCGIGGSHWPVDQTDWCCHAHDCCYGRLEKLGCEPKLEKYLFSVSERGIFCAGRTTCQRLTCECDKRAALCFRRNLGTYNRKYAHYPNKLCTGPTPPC

Structure (SMILES)	IC50 [1]	IC50 [2]	IC50 [3]	IC50 [4]	IC50 [5]	IC50 [6]	IC50 [7]	IC50 [8]	IC50 [9]	IC50 [10]
Cc1cc(OCC(=O)O)c2c(C(=O)C(N)=O)c(C)n(Cc3ccccc3)c2c1	2500 nM	300 nM	800 nM	2000 nM	2000 nM	400 nM	125 nM	850 nM	2200 nM	125 nM
Cc1c(C(=O)C(N)=O)c2c(OCC(=O)O)cccc2n1Cc1ccccc1	2500 nM	275 nM	800 nM	2200 nM	2500 nM	400 nM	125 nM	1000 nM	2000 nM	75 nM
CCc1c(C(=O)C(N)=O)c2c(OCC(=O)O)cc(C)cc2n1Cc1ccccc1		125 nM		200 nM	800 nM	75 nM				50 nM
CCc1c(C(=O)C(N)=O)c2c(OCC(=O)O)cccc2n1Cc1ccccc1 [VARESPLADIB]	75 nM		500 nM	140 nM	750 nM	75 nM	70 nM	750 nM		50 nM
